Test results from the NIST ThermoML archive (doi:10.1021/je900596d).

Settings: Vibrating tube method

FC(F)=C(F)C(F)(F)F [hexafluoropropene]
Settings	mass density [kg/m3]
323.21 K, 828.7 kPa, Fluid (supercritical or subcritical phases)	54.45
323.21 K, 843.1 kPa, Fluid (supercritical or subcritical phases)	55.34
323.21 K, 857.3 kPa, Fluid (supercritical or subcritical phases)	56.72
323.21 K, 871.6 kPa, Fluid (supercritical or subcritical phases)	57.78
323.21 K, 885.7 kPa, Fluid (supercritical or subcritical phases)	58.95
323.21 K, 899.5 kPa, Fluid (supercritical or subcritical phases)	60.25
323.21 K, 913.3 kPa, Fluid (supercritical or subcritical phases)	61.27
323.21 K, 926.9 kPa, Fluid (supercritical or subcritical phases)	62.44
323.21 K, 940.4 kPa, Fluid (supercritical or subcritical phases)	63.5
323.21 K, 953.6 kPa, Fluid (supercritical or subcritical phases)	64.78
323.21 K, 979.1 kPa, Fluid (supercritical or subcritical phases)	66.9
323.21 K, 991.3 kPa, Fluid (supercritical or subcritical phases)	67.99
323.21 K, 1002.7 kPa, Fluid (supercritical or subcritical phases)	69.01
323.21 K, 1014.7 kPa, Fluid (supercritical or subcritical phases)	70.07
323.21 K, 1026.1 kPa, Fluid (supercritical or subcritical phases)	71.06
323.21 K, 1037.2 kPa, Fluid (supercritical or subcritical phases)	72
323.21 K, 1048.9 kPa, Fluid (supercritical or subcritical phases)	73.11
323.21 K, 1059.5 kPa, Fluid (supercritical or subcritical phases)	74
323.21 K, 1071.8 kPa, Fluid (supercritical or subcritical phases)	75.2
323.21 K, 1084.6 kPa, Fluid (supercritical or subcritical phases)	76.45
323.21 K, 1096.6 kPa, Fluid (supercritical or subcritical phases)	77.55
323.21 K, 1108.7 kPa, Fluid (supercritical or subcritical phases)	78.69
323.21 K, 1120.7 kPa, Fluid (supercritical or subcritical phases)	80.05
323.21 K, 1132.3 kPa, Fluid (supercritical or subcritical phases)	81.01
323.21 K, 1143.9 kPa, Fluid (supercritical or subcritical phases)	82.09
323.21 K, 1155.2 kPa, Fluid (supercritical or subcritical phases)	83.24
323.21 K, 1165.7 kPa, Fluid (supercritical or subcritical phases)	84.23
323.21 K, 1176.1 kPa, Fluid (supercritical or subcritical phases)	85.31
323.21 K, 1188.5 kPa, Fluid (supercritical or subcritical phases)	86.52
323.21 K, 1200.2 kPa, Fluid (supercritical or subcritical phases)	87.81
323.21 K, 1211.6 kPa, Fluid (supercritical or subcritical phases)	88.92
323.21 K, 1222.4 kPa, Fluid (supercritical or subcritical phases)	90.01
323.21 K, 1232.6 kPa, Fluid (supercritical or subcritical phases)	91.08
323.21 K, 1244.2 kPa, Fluid (supercritical or subcritical phases)	92.41
323.21 K, 1254.9 kPa, Fluid (supercritical or subcritical phases)	93.54
323.21 K, 1265.5 kPa, Fluid (supercritical or subcritical phases)	94.64
323.21 K, 1276.2 kPa, Fluid (supercritical or subcritical phases)	95.86
323.21 K, 1286.6 kPa, Fluid (supercritical or subcritical phases)	97.01
323.21 K, 1298.7 kPa, Fluid (supercritical or subcritical phases)	98.44
323.21 K, 1311.6 kPa, Fluid (supercritical or subcritical phases)	99.8
323.21 K, 1324 kPa, Fluid (supercritical or subcritical phases)	101.35
323.21 K, 1336 kPa, Fluid (supercritical or subcritical phases)	102.77
323.21 K, 1347.5 kPa, Fluid (supercritical or subcritical phases)	104.06
323.21 K, 1358.7 kPa, Fluid (supercritical or subcritical phases)	105.47
323.21 K, 1369.5 kPa, Fluid (supercritical or subcritical phases)	106.75
323.21 K, 1380 kPa, Fluid (supercritical or subcritical phases)	108.11
323.21 K, 1392.5 kPa, Fluid (supercritical or subcritical phases)	109.8
323.21 K, 1402.5 kPa, Fluid (supercritical or subcritical phases)	110.98
323.21 K, 1410.5 kPa, Fluid (supercritical or subcritical phases)	112.1
323.21 K, 1411.1 kPa, Fluid (supercritical or subcritical phases)	112.29
323.21 K, 1411.8 kPa, Fluid (supercritical or subcritical phases)	112.41
323.21 K, 1412.5 kPa, Fluid (supercritical or subcritical phases)	112.57
323.21 K, 1413.3 kPa, Fluid (supercritical or subcritical phases)	112.79
323.21 K, 1414.6 kPa, Fluid (supercritical or subcritical phases)	113.23
323.21 K, 1415.9 kPa, Fluid (supercritical or subcritical phases)	113.81
323.21 K, 1417 kPa, Fluid (supercritical or subcritical phases)	114.07
323.21 K, 1417.8 kPa, Fluid (supercritical or subcritical phases)	114.29
323.21 K, 1418.6 kPa, Fluid (supercritical or subcritical phases)	115.65
323.21 K, 1418.8 kPa, Fluid (supercritical or subcritical phases)	116.26
323.37 K, 1419.4 kPa, Liquid	1174.23
323.37 K, 1421.5 kPa, Liquid	1174.38
323.37 K, 1423.2 kPa, Liquid	1174.38
323.37 K, 1425.7 kPa, Liquid	1174.43
323.37 K, 1427.1 kPa, Liquid	1174.45
323.37 K, 1432.2 kPa, Liquid	1174.63
323.37 K, 1436.2 kPa, Liquid	1174.81
323.37 K, 1440.4 kPa, Liquid	1174.76
323.37 K, 1445.7 kPa, Liquid	1175
323.37 K, 1451.5 kPa, Liquid	1175.02
323.37 K, 1457.1 kPa, Liquid	1175.21
323.37 K, 1466.8 kPa, Liquid	1175.47
323.37 K, 1497.2 kPa, Liquid	1176.12
323.37 K, 1510 kPa, Liquid	1176.43
323.37 K, 1522.1 kPa, Liquid	1176.69
323.37 K, 1537.1 kPa, Liquid	1176.99
323.37 K, 1549.7 kPa, Liquid	1177.31
323.37 K, 1563.1 kPa, Liquid	1177.61
323.37 K, 1577.9 kPa, Liquid	1178.01
323.37 K, 1593 kPa, Liquid	1178.25
323.37 K, 1606 kPa, Liquid	1178.65
323.37 K, 1618.2 kPa, Liquid	1178.79
323.37 K, 1633 kPa, Liquid	1179.18
323.37 K, 1650.5 kPa, Liquid	1179.47
323.37 K, 1665.3 kPa, Liquid	1179.86
323.37 K, 1679.6 kPa, Liquid	1180.16
323.37 K, 1693.1 kPa, Liquid	1180.45
323.37 K, 1699.6 kPa, Liquid	1180.56
323.37 K, 1718.6 kPa, Liquid	1180.95
323.37 K, 1737.4 kPa, Liquid	1181.34
323.37 K, 1760 kPa, Liquid	1181.89
323.37 K, 1778.2 kPa, Liquid	1182.25
323.37 K, 1797.3 kPa, Liquid	1182.59
323.37 K, 1819.1 kPa, Liquid	1183.13
323.37 K, 1845.8 kPa, Liquid	1183.69
323.37 K, 1870.4 kPa, Liquid	1184.11
323.37 K, 1897.4 kPa, Liquid	1184.74
323.37 K, 1924.8 kPa, Liquid	1185.37
323.37 K, 1943.5 kPa, Liquid	1185.64
323.37 K, 1970 kPa, Liquid	1186.24
323.37 K, 1988.8 kPa, Liquid	1186.54
323.37 K, 2013.8 kPa, Liquid	1187.15
323.37 K, 2040.4 kPa, Liquid	1187.71
323.37 K, 2074.7 kPa, Liquid	1188.33
323.37 K, 2102.6 kPa, Liquid	1188.84
323.37 K, 2129.9 kPa, Liquid	1189.44
323.37 K, 2157.7 kPa, Liquid	1190.03
323.37 K, 2186.2 kPa, Liquid	1190.47
323.37 K, 2213.3 kPa, Liquid	1191.16
323.37 K, 2277.1 kPa, Liquid	1192.28
323.37 K, 2311.9 kPa, Liquid	1192.94
323.37 K, 2338 kPa, Liquid	1193.41
323.37 K, 2366.9 kPa, Liquid	1194
323.37 K, 2396.7 kPa, Liquid	1194.59
323.37 K, 2428 kPa, Liquid	1195.18
323.37 K, 2456.3 kPa, Liquid	1195.7
323.37 K, 2482.6 kPa, Liquid	1196.22
323.37 K, 2511.2 kPa, Liquid	1196.77
323.37 K, 2547.6 kPa, Liquid	1197.4
323.37 K, 2588.4 kPa, Liquid	1198.21
323.37 K, 2628 kPa, Liquid	1198.83
323.37 K, 2671.3 kPa, Liquid	1199.65
323.37 K, 2714.7 kPa, Liquid	1200.41
323.37 K, 2754.7 kPa, Liquid	1201.07
323.37 K, 2795.1 kPa, Liquid	1201.67
323.37 K, 2833.2 kPa, Liquid	1202.46
323.37 K, 2876 kPa, Liquid	1203.06
323.37 K, 2913.9 kPa, Liquid	1203.87
323.37 K, 2953 kPa, Liquid	1204.53
323.37 K, 2989.2 kPa, Liquid	1205.13
323.37 K, 3027.6 kPa, Liquid	1205.88
323.37 K, 3069.8 kPa, Liquid	1206.59
323.37 K, 3107.8 kPa, Liquid	1207.26
323.37 K, 3148.5 kPa, Liquid	1207.95
